Patent publication US5288720A, “Angiotensin II receptor blocking 2,3,6 substituted quinazolinones” (American Cyanamid Company, priority 1993, dated 1994)

Tested on: ANGIOTENSIN II VASOPRESSOR RESPONSE
Assay: AII Challenge: blockade of angiotensin II vasopressor response in conscious SHR
Assay type: in vivo, rat (Conscious Male Okamoto-Aoki SHR)
Conditions: SHR n=2
In short: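 Conscious male Okamoto-Aoki SHR (16-20 weeks, ~330 g) cannulated in aorta and vena cava under local procaine; angiotensin II (human) 0.05 and 0.1 ug/kg i.v. given before and at 30-300 min after test compound i.v., i.p. or orally. Rise in systolic pressure (mmHg) expressed as % blockade versus each rat's predose response.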

[1] = 3 mg/kg i.v., AII 0.05 mcg/kg IV, 30 min post dose
[2] = 3 mg/kg i.v., AII 0.05 mcg/kg IV, 60 min post dose
[3] = 3 mg/kg i.v., AII 0.05 mcg/kg IV, 90 min post dose
[4] = 3 mg/kg i.v., AII 0.05 mcg/kg IV, 120 min post dose
[5] = 3 mg/kg i.v., AII 0.05 mcg/kg IV, 180 min post dose
[6] = 3 mg/kg i.v., AII 0.05 mcg/kg IV, 240 min post dose
[7] = 3 mg/kg i.v., AII 0.05 mcg/kg IV, 300 min post dose
[8] = 3 mg/kg i.v., AII 0.1 mcg/kg IV, 30 min post dose
[9] = 3 mg/kg i.v., AII 0.1 mcg/kg IV, 60 min post dose
[10] = 3 mg/kg i.v., AII 0.1 mcg/kg IV, 90 min post dose
[11] = 3 mg/kg i.v., AII 0.1 mcg/kg IV, 120 min post dose
[12] = 3 mg/kg i.v., AII 0.1 mcg/kg IV, 180 min post dose
[13] = 3 mg/kg i.v., AII 0.1 mcg/kg IV, 240 min post dose
[14] = 3 mg/kg i.v., AII 0.1 mcg/kg IV, 300 min post dose
[15] = 3 mg/kg p.o., AII 0.05 mcg/kg IV, 30 min post dose
[16] = 3 mg/kg p.o., AII 0.05 mcg/kg IV, 60 min post dose
[17] = 3 mg/kg p.o., AII 0.05 mcg/kg IV, 90 min post dose
[18] = 3 mg/kg p.o., AII 0.05 mcg/kg IV, 120 min post dose
[19] = 3 mg/kg p.o., AII 0.05 mcg/kg IV, 180 min post dose
[20] = 3 mg/kg p.o., AII 0.1 mcg/kg IV, 30 min post dose
[21] = 3 mg/kg p.o., AII 0.1 mcg/kg IV, 60 min post dose
[22] = 3 mg/kg p.o., AII 0.1 mcg/kg IV, 90 min post dose
[23] = 3 mg/kg p.o., AII 0.1 mcg/kg IV, 120 min post dose
[24] = 3 mg/kg p.o., AII 0.1 mcg/kg IV, 180 min post dose
[25] = 10 mg/kg p.o., AII 0.05 mcg/kg IV, 30 min post dose
[26] = 10 mg/kg p.o., AII 0.05 mcg/kg IV, 60 min post dose
[27] = 10 mg/kg p.o., AII 0.05 mcg/kg IV, 90 min post dose
[28] = 10 mg/kg p.o., AII 0.05 mcg/kg IV, 120 min post dose
[29] = 10 mg/kg p.o., AII 0.05 mcg/kg IV, 180 min post dose
[30] = 10 mg/kg p.o., AII 0.05 mcg/kg IV, 240 min post dose
[31] = 10 mg/kg p.o., AII 0.05 mcg/kg IV, 300 min post dose
[32] = 10 mg/kg p.o., AII 0.1 mcg/kg IV, 30 min post dose
[33] = 10 mg/kg p.o., AII 0.1 mcg/kg IV, 60 min post dose
[34] = 10 mg/kg p.o., AII 0.1 mcg/kg IV, 90 min post dose
[35] = 10 mg/kg p.o., AII 0.1 mcg/kg IV, 120 min post dose
[36] = 10 mg/kg p.o., AII 0.1 mcg/kg IV, 180 min post dose
[37] = 10 mg/kg p.o., AII 0.1 mcg/kg IV, 240 min post dose
[38] = 10 mg/kg p.o., AII 0.1 mcg/kg IV, 300 min post dose

CCCCc1nc2ccc(C(O)C3CCCN(C)C3=O)cc2c(=O)n1Cc1ccc(-c2ccccc2-c2nn[nH]n2)cc1 (single isomer, unassigned; isomer 1) [Example 37, 2-Butyl-6-hydroxy(1-methyl-2-oxo-3-piperidinyl)methyl]-3-[[2'-(1H-tetrazol-5-yl)[1,1'-biphenyl]-4-yl]methyl]-4(3H)-quinazolinone isomer 1]
% Inhibition of AII vasopressor response [1]: 100% | Average Change (systolic blood pressure response to AII) [1]: 0 mmHg | % Inhibition of AII vasopressor response [2]: 100% | Average Change (systolic blood pressure response to AII) [2]: 0 mmHg | % Inhibition of AII vasopressor response [3]: 100% | Average Change (systolic blood pressure response to AII) [3]: 0 mmHg | % Inhibition of AII vasopressor response [4]: 91% | Average Change (systolic blood pressure response to AII) [4]: 2.5 mmHg | % Inhibition of AII vasopressor response [5]: 55% | Average Change (systolic blood pressure response to AII) [5]: 12.5 mmHg | % Inhibition of AII vasopressor response [6]: 64% | Average Change (systolic blood pressure response to AII) [6]: 10 mmHg | % Inhibition of AII vasopressor response [7]: 36% | Average Change (systolic blood pressure response to AII) [7]: 17.5 mmHg | % Inhibition of AII vasopressor response [8]: 92% | Average Change (systolic blood pressure response to AII) [8]: 2.5 mmHg | % Inhibition of AII vasopressor response [9]: 92% | Average Change (systolic blood pressure response to AII) [9]: 2.5 mmHg | % Inhibition of AII vasopressor response [10]: 85% | Average Change (systolic blood pressure response to AII) [10]: 5 mmHg | % Inhibition of AII vasopressor response [11]: 85% | Average Change (systolic blood pressure response to AII) [11]: 5 mmHg | % Inhibition of AII vasopressor response [12]: 66% | Average Change (systolic blood pressure response to AII) [12]: 11 mmHg | % Inhibition of AII vasopressor response [13]: 23% | Average Change (systolic blood pressure response to AII) [13]: 25 mmHg | % Inhibition of AII vasopressor response [14]: 0% | Average Change (systolic blood pressure response to AII) [14]: 32.5 mmHg | % Inhibition of AII vasopressor response [15]: 53% | Average Change (systolic blood pressure response to AII) [15]: 19 mmHg | % Inhibition of AII vasopressor response [16]: 29% | Average Change (systolic blood pressure response to AII) [16]: 28.5 mmHg | % Inhibition of AII vasopressor response [17]: 29% | Average Change (systolic blood pressure response to AII) [17]: 28.5 mmHg | % Inhibition of AII vasopressor response [18]: 13% | Average Change (systolic blood pressure response to AII) [18]: 35 mmHg | % Inhibition of AII vasopressor response [19]: 0% | Average Change (systolic blood pressure response to AII) [19]: 40 mmHg | % Inhibition of AII vasopressor response [20]: -6% | Average Change (systolic blood pressure response to AII) [20]: 47.5 mmHg | % Inhibition of AII vasopressor response [21]: 30% | Average Change (systolic blood pressure response to AII) [21]: 31.5 mmHg | % Inhibition of AII vasopressor response [22]: 11% | Average Change (systolic blood pressure response to AII) [22]: 40 mmHg | % Inhibition of AII vasopressor response [23]: 22% | Average Change (systolic blood pressure response to AII) [23]: 35 mmHg | % Inhibition of AII vasopressor response [24]: 22% | Average Change (systolic blood pressure response to AII) [24]: 35 mmHg | % Inhibition of AII vasopressor response [25]: 67% | Average Change (systolic blood pressure response to AII) [25]: 17.5 mmHg | % Inhibition of AII vasopressor response [26]: 65% | Average Change (systolic blood pressure response to AII) [26]: 18.5 mmHg | % Inhibition of AII vasopressor response [27]: 62% | Average Change (systolic blood pressure response to AII) [27]: 20 mmHg | % Inhibition of AII vasopressor response [28]: 67% | Average Change (systolic blood pressure response to AII) [28]: 17.5 mmHg | % Inhibition of AII vasopressor response [29]: 57% | Average Change (systolic blood pressure response to AII) [29]: 22.5 mmHg | % Inhibition of AII vasopressor response [30]: 43% | Average Change (systolic blood pressure response to AII) [30]: 30 mmHg | % Inhibition of AII vasopressor response [31]: 52% | Average Change (systolic blood pressure response to AII) [31]: 25 mmHg | % Inhibition of AII vasopressor response [32]: 40% | Average Change (systolic blood pressure response to AII) [32]: 30 mmHg | % Inhibition of AII vasopressor response [33]: 26% | Average Change (systolic blood pressure response to AII) [33]: 37 mmHg | % Inhibition of AII vasopressor response [34]: 40% | Average Change (systolic blood pressure response to AII) [34]: 30 mmHg | % Inhibition of AII vasopressor response [35]: 55% | Average Change (systolic blood pressure response to AII) [35]: 22.5 mmHg | % Inhibition of AII vasopressor response [36]: 35% | Average Change (systolic blood pressure response to AII) [36]: 32.5 mmHg | % Inhibition of AII vasopressor response [37]: 40% | Average Change (systolic blood pressure response to AII) [37]: 30 mmHg | % Inhibition of AII vasopressor response [38]: 35% | Average Change (systolic blood pressure response to AII) [38]: 32.5 mmHg

CCCCc1nc2ccc(C(OC)C3CCCO3)cc2c(=O)n1Cc1ccc(-c2ccccc2-c2nn[nH]n2)cc1 (single isomer, unassigned; isomer 1) [Example 23, 2-Butyl-6-[methoxy(tetrahydro-2-furanyl)methyl-3-[[2'-(1H-tetrazol-5-yl)[1,1'-biphenyl]-4-yl]-methyl]-4(3e,uns/H/ )-quinazolinone isomer 1]
% Inhibition of AII vasopressor response [1]: 97% | Average Change (systolic blood pressure response to AII) [1]: 1 mmHg | % Inhibition of AII vasopressor response [2]: 93% | Average Change (systolic blood pressure response to AII) [2]: 2.5 mmHg | % Inhibition of AII vasopressor response [3]: 79% | Average Change (systolic blood pressure response to AII) [3]: 7.5 mmHg | % Inhibition of AII vasopressor response [4]: 79% | Average Change (systolic blood pressure response to AII) [4]: 7.5 mmHg | % Inhibition of AII vasopressor response [5]: 79% | Average Change (systolic blood pressure response to AII) [5]: 7.5 mmHg | % Inhibition of AII vasopressor response [6]: 60% | Average Change (systolic blood pressure response to AII) [6]: 14 mmHg | % Inhibition of AII vasopressor response [7]: 50% | Average Change (systolic blood pressure response to AII) [7]: 17.5 mmHg | % Inhibition of AII vasopressor response [8]: 96% | Average Change (systolic blood pressure response to AII) [8]: 1.5 mmHg | % Inhibition of AII vasopressor response [9]: 84% | Average Change (systolic blood pressure response to AII) [9]: 6.5 mmHg | % Inhibition of AII vasopressor response [10]: 79% | Average Change (systolic blood pressure response to AII) [10]: 8.5 mmHg | % Inhibition of AII vasopressor response [11]: 81% | Average Change (systolic blood pressure response to AII) [11]: 7.5 mmHg | % Inhibition of AII vasopressor response [12]: 75% | Average Change (systolic blood pressure response to AII) [12]: 10 mmHg | % Inhibition of AII vasopressor response [13]: 50% | Average Change (systolic blood pressure response to AII) [13]: 20 mmHg | % Inhibition of AII vasopressor response [14]: 50% | Average Change (systolic blood pressure response to AII) [14]: 20 mmHg | % Inhibition of AII vasopressor response [15]: 58% | Average Change (systolic blood pressure response to AII) [15]: 20 mmHg | % Inhibition of AII vasopressor response [16]: 21% | Average Change (systolic blood pressure response to AII) [16]: 37.5 mmHg | % Inhibition of AII vasopressor response [17]: 37% | Average Change (systolic blood pressure response to AII) [17]: 30 mmHg | % Inhibition of AII vasopressor response [18]: 47% | Average Change (systolic blood pressure response to AII) [18]: 25 mmHg | % Inhibition of AII vasopressor response [19]: 21% | Average Change (systolic blood pressure response to AII) [19]: 37.5 mmHg | % Inhibition of AII vasopressor response [20]: 18% | Average Change (systolic blood pressure response to AII) [20]: 45 mmHg | % Inhibition of AII vasopressor response [21]: 14% | Average Change (systolic blood pressure response to AII) [21]: 47.5 mmHg | % Inhibition of AII vasopressor response [22]: 32% | Average Change (systolic blood pressure response to AII) [22]: 37.5 mmHg | % Inhibition of AII vasopressor response [23]: 36% | Average Change (systolic blood pressure response to AII) [23]: 35 mmHg | % Inhibition of AII vasopressor response [24]: 9%
